The values that follow come from patent US10233143B2, “Pseudoceramide compound, and external use skin preparation composition containing same” (AE KYUNG INDUSTRIAL CO., LTD, priority 2014, dated 2019).

Structures are written as SMILES.

A short description of experiment [1]: Strengthening internal hair tissues: hair breakage after 10,000 brushings (Experimental Example 3). To be noted: for Numbers of broken hairs: hair essence with 0.2 wt % of the substance applied once, among 4,000 strands after 10,000 brushings, untreated 89; for Hair breakage improvement rate: hair essence with 0.2 wt % of the substance, versus untreated hairs. The protocol:
A formulation of hair essence including novel compounds comprising pseudoceramide prepared in Example 7, a formulation of hair essence including conventional pseudoceramide prepared in Comparative Example 5, a formulation of hair essence without pseudoceramide prepared in Comparative Example 6 were evaluated in view of internal hair tissue strengthening effect. The internal hair tissue strengthening effect was tested in the following manner.
After hairs damaged by permanent weaving, bleaching, shampooing, thermal stimulation, brushing and so on were prepared, ceramide administered essence was applied once to the damaged hairs. In order to evaluate strengths of internal tissues of the hair, after the hair was brushed 10,000 times, a hair breakage improvement rate was calculated using the number of broken strands of untreated hairs and the number of broken strands of treated hairs. The number of hairs used in the experiment was 4,000 in total for each sample.
The hair breakage improvement rate was calculated by the following equation: Breakage improvement rate (%)=(Number of broken strands of untreated hairs−Number of broken strands of treated hairs)/Number of broken strands of untreated hairs

The test system of experiment [2] is HaCaT human keratinocyte cells. Nature of the experiment: Cytotoxicity assay (MTT). The experiment is classed as cell-based. The conditions noted are these: one day incubation, absorbance 540 nm. As for the experimental part:
Extents of citotoxicity were measured using HaCaT human keratinocyte cells. The HaCaT human keratinocyte cells were maintained in Dulbecco's modified Eagle's medium (DMEM) supplemented with 10% fetal bovine serum (FBS)] and then seeded onto 96-well plates with a concentration of 6×10^3 cells to be cultured at 37° C. in a 5% CO2 atmosphere for one day. Then, the DMEM was replaced with a new one and samples were treated by a serial dilution method with various concentrations ranging from 2.5 mM and then incubated for one day. After one day, 10 μl MTT reagents were treated with a 5 mg/mL concentration in media and the HaCaT cells were then incubated at 37° C. in a 5% CO2 atmosphere for 4 hours. The media were removed and 150 μl DMSO reagent was added to each well to dissolve violet crystals. Absorbance at 540 nm was measured.
A reaction solution without a sample was used as a negative control group. A cell growth rate for each sample solution was calculated by the following equation (1) and the results are shown in FIG. 7: Cell growth rate (%)=A/B×100 (1)
B: Absorbance of negative control group

The subject of experiment [3] is Propionibacterium acnes (ATCC 6919). The experiment in a line: Minimum inhibitory concentration against Propionibacterium acnes (agar medium). To be noted: media treated with the sample. The experiment is classed as cell-based. The protocol: To investigate anti-microvial activity of the pseudoceramide compound represented by Formula 3 according to the present invention against propionibacterium acnes, the minimum inhibitory concentration (MIC) of the pseudoceramide sample was measured in the following manner. The sample to be tested was added to reinforced clostridial agar medium (commercially available from Difco Co.) in an amount of 0.06 to 1.0%, followed by solidification of the medium. The suspension of pre-incubated Propionibacterium acnes ATCC 6919 was streaked on the surface of the medium and the medium was incubated for 3 days at 37° C. under anaerobic condition.

For `CCCCCCCC/C=C/CCCCCCCCNC(=O)CC(/C=C/CCCCCCCCCC)C(=O)O` (stereo not drawn) [Formula 3], in experiment [1], the “Numbers of broken hairs” value is recorded as 31 and the “Hair breakage improvement rate” value was determined as 64%. Also, in experiment [2], the “half maximum inhibitory concentration (IC50), cell growth rate” value was determined as 516.83 ppm. Also, the “growth of strain in treated media (FIG. 8)” value in experiment [3] is “no strain was expressed”.

Consider `CCCCCCCCCCCCCCCCCC(=O)N[C@@H](CO)[C@H](O)[C@H](O)CCCCCCCCCCCCCC` [ceramide 3, reference compound], for which, in experiment [1], the “Numbers of broken hairs” value was 63 and the “Hair breakage improvement rate” value turned out to be 27%.
